Data: patent US20100099561A1, “HETEROBICYCLIC ALKYLTHIO-BRIDGED ISOXAZOLINES” (E.I. DU PONT DE NEMOURS AND COMPANY, priority 2008, published 2010)

Columns and labels:
Type in all cases: in vivo
[1] = tested on: pigweed (Amaranthus retroflexus); assay: Test A preemergence, pigweed; conditions: 0 to 100 scale (0 no effect, 100 complete control)
Method in brief: (§1)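 Greenhouse pre/postemergence test, loam–sand soil. Postemergence plants one- to two-leaf, 2–10 cm. Visual injury rating ~10 d after treatment, 0–100 vs untreated.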

[2] = tested on: wheat (Triticum aestivum); assay: Test A postemergence, wheat; conditions: 0 to 100 scale (0 no effect, 100 complete control)
Method in brief: as §1

[3] = tested on: morningglory (Ipomoea spp.); assay: Test A postemergence, morningglory; conditions: 0 to 100 scale (0 no effect, 100 complete control)
Method in brief: as §1

[4] = tested on: corn (Zea mays); assay: Test A postemergence, corn; conditions: 0 to 100 scale (0 no effect, 100 complete control)
Method in brief: as §1

[5] = tested on: rice (Oryza sativa); assay: Test B flooded paddy test, rice; conditions: Flood, scale 0 to 100
Method in brief: (§2)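 Compounds were added directly to paddy water over 2-leaf-stage plants in pots flooded 3 cm above soil, water depth maintained. Visual injury scored against controls after 13 to 15 days in greenhouse, 0 (none) to 100 (complete control); dash indicates no result.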

[6] = tested on: giant foxtail (Setaria faberi); assay: Test A preemergence, giant foxtail; conditions: 0 to 100 scale (0 no effect, 100 complete control)
Method in brief: as §1

[7] = tested on: giant foxtail (Setaria faberi); assay: Test A postemergence, giant foxtail; conditions: 0 to 100 scale (0 no effect, 100 complete control)
Method in brief: as §1

[8] = tested on: large crabgrass (Digitaria sanguinalis); assay: Test A postemergence, large crabgrass; conditions: 0 to 100 scale (0 no effect, 100 complete control)
Method in brief: as §1

[9] = tested on: umbrella sedge (Cyperus difformis); assay: Test B flooded paddy test, umbrella sedge; conditions: Flood, scale 0 to 100
Method in brief: as §2

[10] = tested on: barnyardgrass (Echinochloa crus-galli); assay: Test B flooded paddy test, barnyardgrass; conditions: Flood
Method in brief: as §2

[11] = tested on: barnyardgrass (Echinochloa crus-galli); assay: Test A postemergence, barnyardgrass; conditions: 0 to 100 scale (0 no effect, 100 complete control)
Method in brief: as §1

[12] = tested on: morningglory (Ipomoea spp.); assay: Test A preemergence, morningglory; conditions: 0 to 100 scale (0 no effect, 100 complete control)
Method in brief: as §1

[13] = tested on: large crabgrass (Digitaria sanguinalis); assay: Test A preemergence, large crabgrass; conditions: 0 to 100 scale (0 no effect, 100 complete control)
Method in brief: as §1

[14] = tested on: barnyardgrass (Echinochloa crus-galli); assay: Test A preemergence, barnyardgrass; conditions: 0 to 100 scale (0 no effect, 100 complete control)
Method in brief: as §1

[15] = tested on: velvetleaf (Abutilon theophrasti); assay: Test A preemergence, velvetleaf; conditions: 0 to 100 scale (0 no effect, 100 complete control)
Method in brief: as §1

[16] = tested on: pigweed (Amaranthus retroflexus); assay: Test A postemergence, pigweed; conditions: 0 to 100 scale (0 no effect, 100 complete control)
Method in brief: as §1

[17] = tested on: ducksalad (Heteranthera limosa); assay: Test B flooded paddy test, ducksalad; conditions: Flood, scale 0 to 100
Method in brief: as §2

[18] = tested on: wheat (Triticum aestivum); assay: Test A preemergence, wheat; conditions: 0 to 100 scale (0 no effect, 100 complete control)
Method in brief: as §1

[19] = tested on: corn (Zea mays); assay: Test A preemergence, corn; conditions: 0 to 100 scale (0 no effect, 100 complete control)
Method in brief: as §1

[20] = tested on: velvetleaf (Abutilon theophrasti); assay: Test A postemergence, velvetleaf; conditions: 0 to 100 scale (0 no effect, 100 complete control)
Method in brief: as §1

[21] = 250 g ai/ha, scale 0 to 100 (0 no effect, 100 complete control)

CCn1c(=O)c(C[S+]([O-])C2=NOC(C)(C)C2)nc2cccnc21 (centres unmarked) [Compound 38]
10: Plant response rating, Wheat ([2]; 500 g ai/ha) | Plant response rating, Morningglory ([3]; 500 g ai/ha)
30: Plant response rating, Barnyardgrass ([11]; 500 g ai/ha) | Plant response rating, Velvetleaf ([20]; 500 g ai/ha)
20: Plant response rating, Crabgrass, Large ([8]; 500 g ai/ha) | Plant response rating, Barnyardgrass ([11]; 125 g ai/ha)
0: Plant response rating, Pigweed ([1]; 125 g ai/ha) | Plant response rating, Pigweed ([1]; 500 g ai/ha) | Plant response rating, Wheat ([2]; 125 g ai/ha) | Plant response rating, Morningglory ([3]; 125 g ai/ha) | Plant response rating, Corn ([4]; 125 g ai/ha) | Plant response rating, Corn ([4]; 500 g ai/ha) | Plant response rating, Rice ([5]; 31 g ai/ha) | Plant response rating, Rice ([5]; 62 g ai/ha) | Plant response rating, Rice ([5]; 125 g ai/ha) | Plant response rating, Rice ([5]; 250 g ai/ha) | Plant response rating, Foxtail, Giant ([6]; 125 g ai/ha) | Plant response rating, Foxtail, Giant ([6]; 500 g ai/ha) | Plant response rating, Foxtail, Giant ([7]; 125 g ai/ha) | Plant response rating, Foxtail, Giant ([7]; 500 g ai/ha) | Plant response rating, Crabgrass, Large ([8]; 125 g ai/ha) | Plant response rating, Sedge, Umbrella ([9]; 31 g ai/ha) | Plant response rating, Sedge, Umbrella ([9]; 62 g ai/ha) | Plant response rating, Sedge, Umbrella ([9]; 125 g ai/ha) | Plant response rating, Sedge, Umbrella ([9]; 250 g ai/ha) | Plant response rating, Barnyardgrass ([10]; 31 g ai/ha, scale 0 to 100) | Plant response rating, Barnyardgrass ([10]; 62 g ai/ha, scale 0 to 100) | Plant response rating, Barnyardgrass ([10]; 125 g ai/ha, scale 0 to 100) | Plant response rating, Barnyardgrass [10, 21] | Plant response rating, Morningglory ([12]; 125 g ai/ha) | Plant response rating, Morningglory ([12]; 500 g ai/ha) | Plant response rating, Crabgrass, Large ([13]; 125 g ai/ha) | Plant response rating, Crabgrass, Large ([13]; 500 g ai/ha) | Plant response rating, Barnyardgrass ([14]; 125 g ai/ha) | Plant response rating, Barnyardgrass ([14]; 500 g ai/ha) | Plant response rating, Velvetleaf ([15]; 125 g ai/ha) | Plant response rating, Velvetleaf ([15]; 500 g ai/ha) | Plant response rating, Pigweed ([16]; 125 g ai/ha) | Plant response rating, Pigweed ([16]; 500 g ai/ha) | Plant response rating, Ducksalad ([17]; 31 g ai/ha) | Plant response rating, Ducksalad ([17]; 62 g ai/ha) | Plant response rating, Ducksalad ([17]; 125 g ai/ha) | Plant response rating, Ducksalad ([17]; 250 g ai/ha) | Plant response rating, Wheat ([18]; 125 g ai/ha) | Plant response rating, Wheat ([18]; 500 g ai/ha) | Plant response rating, Corn ([19]; 125 g ai/ha) | Plant response rating, Corn ([19]; 500 g ai/ha) | Plant response rating, Velvetleaf ([20]; 125 g ai/ha)

CC1(C)CC([S+]([O-])Cc2c(C(F)(F)C(F)(F)F)nc3n(c2=O)CCCS3)=NO1 (centres unmarked) [Compound 40]
0: Plant response rating, Pigweed ([1]; 125 g ai/ha) | Plant response rating, Pigweed ([1]; 500 g ai/ha) | Plant response rating, Wheat ([2]; 125 g ai/ha) | Plant response rating, Morningglory ([3]; 125 g ai/ha) | Plant response rating, Corn ([4]; 125 g ai/ha) | Plant response rating, Rice ([5]; 31 g ai/ha) | Plant response rating, Rice ([5]; 62 g ai/ha) | Plant response rating, Rice ([5]; 125 g ai/ha) | Plant response rating, Rice ([5]; 250 g ai/ha) | Plant response rating, Foxtail, Giant ([6]; 125 g ai/ha) | Plant response rating, Foxtail, Giant ([7]; 125 g ai/ha) | Plant response rating, Crabgrass, Large ([8]; 125 g ai/ha) | Plant response rating, Sedge, Umbrella ([9]; 31 g ai/ha) | Plant response rating, Sedge, Umbrella ([9]; 62 g ai/ha) | Plant response rating, Sedge, Umbrella ([9]; 125 g ai/ha) | Plant response rating, Sedge, Umbrella ([9]; 250 g ai/ha) | Plant response rating, Barnyardgrass ([10]; 31 g ai/ha, scale 0 to 100) | Plant response rating, Barnyardgrass ([10]; 62 g ai/ha, scale 0 to 100) | Plant response rating, Barnyardgrass ([10]; 125 g ai/ha, scale 0 to 100) | Plant response rating, Barnyardgrass [10, 21] | Plant response rating, Morningglory ([12]; 125 g ai/ha) | Plant response rating, Morningglory ([12]; 500 g ai/ha) | Plant response rating, Crabgrass, Large ([13]; 125 g ai/ha) | Plant response rating, Barnyardgrass ([14]; 125 g ai/ha) | Plant response rating, Velvetleaf ([15]; 125 g ai/ha) | Plant response rating, Velvetleaf ([15]; 500 g ai/ha) | Plant response rating, Pigweed ([16]; 125 g ai/ha) | Plant response rating, Pigweed ([16]; 500 g ai/ha) | Plant response rating, Ducksalad ([17]; 31 g ai/ha) | Plant response rating, Ducksalad ([17]; 62 g ai/ha) | Plant response rating, Ducksalad ([17]; 125 g ai/ha) | Plant response rating, Ducksalad ([17]; 250 g ai/ha) | Plant response rating, Wheat ([18]; 125 g ai/ha) | Plant response rating, Wheat ([18]; 500 g ai/ha) | Plant response rating, Corn ([19]; 125 g ai/ha) | Plant response rating, Corn ([19]; 500 g ai/ha) | Plant response rating, Velvetleaf ([20]; 125 g ai/ha) | Plant response rating, Velvetleaf ([20]; 500 g ai/ha)
20: Plant response rating, Corn ([4]; 500 g ai/ha)
10: Plant response rating, Morningglory ([3]; 500 g ai/ha) | Plant response rating, Barnyardgrass ([11]; 125 g ai/ha)
80: Plant response rating, Foxtail, Giant ([6]; 500 g ai/ha)
50: Plant response rating, Wheat ([2]; 500 g ai/ha) | Plant response rating, Foxtail, Giant ([7]; 500 g ai/ha)
70: Plant response rating, Barnyardgrass ([11]; 500 g ai/ha) | Plant response rating, Crabgrass, Large ([13]; 500 g ai/ha)
40: Plant response rating, Crabgrass, Large ([8]; 500 g ai/ha)
60: Plant response rating, Barnyardgrass ([14]; 500 g ai/ha)

CC1(C)CC([S+]([O-])Cc2c(C(F)(F)C(F)(F)F)nc3n(c2=O)CCS3)=NO1 (centres unmarked) [Compound 41]
30: Plant response rating, Barnyardgrass ([11]; 125 g ai/ha)
10: Plant response rating, Morningglory ([3]; 500 g ai/ha) | Plant response rating, Foxtail, Giant ([7]; 125 g ai/ha)
50: Plant response rating, Crabgrass, Large ([8]; 500 g ai/ha)
40: Plant response rating, Wheat ([2]; 500 g ai/ha) | Plant response rating, Corn ([4]; 500 g ai/ha)
80: Plant response rating, Foxtail, Giant ([6]; 500 g ai/ha) | Plant response rating, Crabgrass, Large ([13]; 500 g ai/ha)
60: Plant response rating, Foxtail, Giant ([7]; 500 g ai/ha) | Plant response rating, Barnyardgrass ([14]; 500 g ai/ha)
70: Plant response rating, Barnyardgrass ([11]; 500 g ai/ha)
0: Plant response rating, Pigweed ([1]; 125 g ai/ha) | Plant response rating, Pigweed ([1]; 500 g ai/ha) | Plant response rating, Wheat ([2]; 125 g ai/ha) | Plant response rating, Morningglory ([3]; 125 g ai/ha) | Plant response rating, Corn ([4]; 125 g ai/ha) | Plant response rating, Rice ([5]; 31 g ai/ha) | Plant response rating, Rice ([5]; 62 g ai/ha) | Plant response rating, Rice ([5]; 125 g ai/ha) | Plant response rating, Rice ([5]; 250 g ai/ha) | Plant response rating, Foxtail, Giant ([6]; 125 g ai/ha) | Plant response rating, Crabgrass, Large ([8]; 125 g ai/ha) | Plant response rating, Sedge, Umbrella ([9]; 31 g ai/ha) | Plant response rating, Sedge, Umbrella ([9]; 62 g ai/ha) | Plant response rating, Sedge, Umbrella ([9]; 125 g ai/ha) | Plant response rating, Sedge, Umbrella ([9]; 250 g ai/ha) | Plant response rating, Barnyardgrass ([10]; 31 g ai/ha, scale 0 to 100) | Plant response rating, Barnyardgrass ([10]; 62 g ai/ha, scale 0 to 100) | Plant response rating, Barnyardgrass ([10]; 125 g ai/ha, scale 0 to 100) | Plant response rating, Barnyardgrass [10, 21] | Plant response rating, Morningglory ([12]; 500 g ai/ha) | Plant response rating, Crabgrass, Large ([13]; 125 g ai/ha) | Plant response rating, Barnyardgrass ([14]; 125 g ai/ha) | Plant response rating, Velvetleaf ([15]; 125 g ai/ha) | Plant response rating, Velvetleaf ([15]; 500 g ai/ha) | Plant response rating, Pigweed ([16]; 125 g ai/ha) | Plant response rating, Pigweed ([16]; 500 g ai/ha) | Plant response rating, Ducksalad ([17]; 31 g ai/ha) | Plant response rating, Ducksalad ([17]; 62 g ai/ha) | Plant response rating, Ducksalad ([17]; 125 g ai/ha) | Plant response rating, Ducksalad ([17]; 250 g ai/ha) | Plant response rating, Wheat ([18]; 125 g ai/ha) | Plant response rating, Wheat ([18]; 500 g ai/ha) | Plant response rating, Corn ([19]; 125 g ai/ha) | Plant response rating, Corn ([19]; 500 g ai/ha) | Plant response rating, Velvetleaf ([20]; 125 g ai/ha) | Plant response rating, Velvetleaf ([20]; 500 g ai/ha)
